Converted amounts (≈) assume the structure as drawn.
Assays:
[1] = Solubility of sparingly soluble substances in water, microemulsion and PEG 400 (50%)
Description: (§1) Different amounts of the substances were added to 1 ml samples of the microemulsion placed in glass vials. The samples were rotated for 48 hours to allow a complete wetting of the solid substance. The samples were than kept in a waterbath at 25° C. for at least one week before inspection. The samples were inspected for any solid substance or phase separation and the maximum solubility was defined as the range between the last sample in each series without any trace of solids or phase separation, and the first sample with remaining and undissolved substance or a phase separation.

physchem = settings: aqueous with cosolvent or surfactant or cyclodextrin
Description: as §1

Row | SMILES | solubility ([1]; PEG 400 (50%) solution, aqueous with cosolvent or surfactant or cyclodextrin) [µg/mL] | Sol. in water ([1]; in water) [mg/L] | sol. in microemulsion 1a ([1]; microemulsion 1a, 25° C., at least one week, range between last clear and first undissolved sample) [mg/L] | sol. in microemulsion 1b ([1]; microemulsion 1b, 25° C., at least one week, range between last clear and first undissolved sample) [mg/L] | amount possible to administrate using the microemulsion compared to a 50% solution PEG 400 ([1]; microemulsion vs 50% solution PEG 400) | solubility (physchem) [µg/mL]
1 | CCOc1c(C)cc2c(c1C)[C@@]1(C)Cc3ccccc3[C@@]1(C)N2 (relative stereo) [The indeno indole, cis-4b,5,9b,10-tetrahydro-4b,7,9,9b-tetramethyl-8-ethoxy-indeno(1,2-b)indole] | 200 (≈ 651 µM) | 2.0 | 40000 to 50000 | 60000 to 75000 | over 100 times | –
2 | CCOC(=O)C1=C(C)NC(C)=C(C(=O)OC)C1c1cccc(Cl)c1Cl (stereo not drawn) [Felodipine, ethyl methyl 4-(2,3-dichlorophenyl)-1,4-dihydro-2,6-dimethyl-3,5-pyridinedicarboxylate] | – | – | – | – | – | 700 (≈ 1820 µM)

— patent US6602511B2, “Microemulsions for use as vehicles for administration of active compounds” (AstraZeneca AB, priority 1995, dated 2003)
